In patent EP0381989A1, “New 4'-epi-4'-amino anthracyclines” (FARMITALIA CARLO ERBA S.r.l., priority 1989, dated 1990):
≈ marks a conversion by molar mass, not a printed value.

Legend:
[1] = system: LoVo (human colon adenocarcinoma); test: in vitro cytotoxicity (colony growth inhibition) on LoVo cells; conditions: for Cytotoxicity after 4h of treatment (IC50) LoVo: lovo cells; for IC50: Homo sapiens, LoVo, 4 h, read-out: Cytotoxicity after 4h of treatment (IC50) LoVo
Protocol: (§1) The biological activity of the compounds according to the inventio was tested in vitro against LoVo (human colon adenocarcinoma) and LoVo/DX cells in comparison with doxorubicin and 4-demethoxydaunorubicin (4-dem-DNR). Table 1. Table 1 -

LoVo/DX cells = test: in vitro cytotoxicity (colony growth inhibition) on LoVo/DX cells; conditions: for Cytotoxicity after 4h of treatment (IC50) LoVo/DX: lovo/dx cells; for R.I. = Resistance Index = (IC50 LoVo.DX)/(IC50 LoVo): ratio of IC50 on LoVo/DX to IC50 on LoVo, 4h of treatment; for IC50: Homo sapiens, LoVo/DX, read-out: Cytotoxicity after 4h of treatment (IC50) LoVo/DX; for Cytotoxicity after 4h of treatment (IC50) LoVo/DX / IC50: 4 h
Protocol: as §1

In the case of “4-demethoxy-6-deoxy-6-amino-3′-deamino-4′-deoxy-4′-epi-amino-daunorubicin [1h]”, the “Cytotoxicity after 4h of treatment (IC50) LoVo” value [1] is reported as 0.004 µg/mL, the “Cytotoxicity after 4h of treatment (IC50) LoVo/DX” value (LoVo/DX cells) is reported as 0.0086 µg/mL and the “R.I. = Resistance Index = (IC50 LoVo.DX)/(IC50 LoVo)” value (“R.I. = Resistance Index =” for short) (LoVo/DX cells) is reported as 2.2.

With “4-demethyl-6-deoxy-3′-deamino-4′-deoxy-4′-epi-amino-doxorubicin [2d]” the “Cytotoxicity after 4h of treatment (IC50) LoVo” value [1] was 0.0012 µg/mL, the “Cytotoxicity after 4h of treatment (IC50) LoVo/DX” value (LoVo/DX cells) was 0.0038 µg/mL and the “R.I. = Resistance Index =” value (LoVo/DX cells) was 3.2.

In the case of `CC(=O)[C@]1(O)Cc2c(O)c3c(c(O)c2[C@@H](O[C@H]2CC[C@@H](N)[C@H](C)O2)C1)C(=O)c1c(O)cccc1C3=O` [1a, 4-demethyl-3′-deamino-4′-deoxy-4′-epi-amino-daunorubicin], the IC50 [1] is reported as 0.0011 µg/mL (≈ 0.00221 µM), the IC50 (LoVo/DX cells) is reported as 0.0027 µg/mL (≈ 0.00543 µM) and the “R.I. = Resistance Index =” value (LoVo/DX cells) is reported as 2.4.

With `CC(=O)[C@]1(O)Cc2c(O)c3c(c(O)c2[C@@H](O[C@H]2CC[C@@H](N)[C@H](C)O2)C1)C(=O)c1c(F)cccc1C3=O` [1c, 4-demethoxy-4-fluoro-3′-deamino-4′-deoxy-4′-epi-amino-daunorubicin] the IC50 [1] was 0.0012 µg/mL (≈ 0.0024 µM), the IC50 (LoVo/DX cells) was 0.006 µg/mL (≈ 0.012 µM) and the “R.I. = Resistance Index =” value (LoVo/DX cells) was 5.0.

`C[C@@H]1O[C@@H](O[C@H]2C[C@](O)(C(=O)CO)Cc3c2c(O)c2c(c3[N+](=O)[O-])C(=O)c3ccccc3C2=O)CC[C@H]1N` [2e, 4-demethoxy-11-deoxy-11-nitro-3′-deamino-4′-deoxy-4′-epi-amino-doxorubicin] was tested, and the IC50 [1] was 0.0484 µg/mL (≈ 0.0919 µM), the IC50 (LoVo/DX cells) was 0.205 µg/mL (≈ 0.389 µM) and the “R.I. = Resistance Index =” value (LoVo/DX cells) was 4.2.

With `C[C@@H]1O[C@@H](O[C@H]2C[C@](O)(C(=O)CO)Cc3c(O)c4c(c([N+](=O)[O-])c32)C(=O)c2ccccc2C4=O)CC[C@H]1N` [2f, 4-demethoxy-6-deoxy-6-nitro-3′-deamino-4′-deoxy-4′-epi-amino-doxorubicin] the IC50 [1] was 0.116 µg/mL (≈ 0.22 µM), the IC50 (LoVo/DX cells) was 2.26 µg/mL (≈ 4.28 µM) and the “R.I. = Resistance Index =” value (LoVo/DX cells) was 19.4.

For `C[C@@H]1O[C@@H](O[C@H]2C[C@](O)(C(=O)CO)Cc3c(N)c4c(c(O)c32)C(=O)c2ccccc2C4=O)CC[C@H]1N` [2g, 4-demethoxy-11-deoxy-11-amino-3′-deamino-4′-deoxy-4′-epi-amino-doxorubicin], the IC50 [1] was 0.0188 µg/mL (≈ 0.0379 µM), the IC50 (LoVo/DX cells) was 0.109 µg/mL (≈ 0.22 µM) and the “R.I. = Resistance Index =” value (LoVo/DX cells) was 5.8.

With `C[C@@H]1O[C@@H](O[C@H]2C[C@](O)(C(=O)CO)Cc3c(O)c4c(c(N)c32)C(=O)c2ccccc2C4=O)CC[C@H]1N` [2h, 4-demethoxy-6-deoxy-6-amino-3′-deamino-4′-deoxy-4′-epi-amino-doxorubicin] the IC50 [1] was 0.0062 µg/mL (≈ 0.0125 µM), the IC50 (LoVo/DX cells) was 0.09 µg/mL (≈ 0.181 µM) and the “R.I. = Resistance Index =” value (LoVo/DX cells) was 14.5.

With `CC(=O)[C@]1(O)Cc2c(O)c3c(c(O)c2[C@@H](O[C@H]2C[C@H](N)[C@H](O)[C@H](C)O2)C1)C(=O)c1ccccc1C3=O` [4-dem-DNR, 4-demethoxydaunorubicin, reference compound] the IC50 [1] was 0.02 µg/mL (≈ 0.0402 µM), the IC50 (LoVo/DX cells) was 0.125 µg/mL (≈ 0.251 µM) and the “R.I. = Resistance Index =” value (LoVo/DX cells) was 6.

In the case of `COc1cccc2c1C(=O)c1c(O)c3c(c(O)c1C2=O)C[C@@](O)(C(=O)CO)C[C@@H]3O[C@H]1C[C@H](N)[C@H](O)[C@H](C)O1` [Doxorubicin, doxorubicin, reference compound], the IC50 [1] is reported as 0.06 µg/mL (≈ 0.11 µM), the IC50 (LoVo/DX cells) is reported as 2.18 µg/mL (≈ 4.01 µM) and the “R.I. = Resistance Index =” value (LoVo/DX cells) is reported as 36.
